Data published in publication PMC8541342, “Expression, Purification and Refolding of a Human NaV1.7 Voltage Sensing Domain with Native-like Toxin Binding Properties” (Toxins, 2021).
“Also recorded” adds a separate entry of the source.

Assays:
full-length NaV1.7 = details: cited from earlier work
mice = details: ref [9]; cited from earlier work
Text: This system opens up possibilities for detailed biophysical studies of binding interactions with toxins and other drug candidates for the development of new non-addictive pain therapeutics targeting NaV1.7. In addition, because the protein is expressed in E. coli, it also enables the preparation of isotope-labeled samples or the introduction of unnatural amino acids for structural and functional studies.

[1] = test system: F813A and D816A mutants of NaV1.7 VSD2 in DMPC vesicles; test: MST binding to mutant VSD2 compared with WT (overlay, Figure S6); parameters: species or system human; details: F813A and D816A vs WT VSD2 in DMPC
Experimental: (Supplementary Material, Figure S5). […] Lastly, it is additional confirmation that our recombinant system captures details of the interactions that correspond to those with full-length channel in native membranes.
The analysis of the MST binding titrations was carried out with the NanoTemper analy sis software, and the relative fluo-rescence measurements and fitted binding cur ves were combined into a single graph to illustrate the rightshift (lower binding affinity) in both mutants. Based on this analysis, both Phe 813 and Asp 816 appear to play an important role in […]

[2] = Dynamic light scattering particle size; assay type: physicochemical; details: DLS, VSD2 in DMPC ~40 μM, fixed-angle, 25 °C, spherical geometry assumed
Experimental: A Brookhaven NanoBrook series instrument was used to perform dynamic light scattering (DLS). The sample in this experiment was the VSD in DMPC solution prepared as described above at a concentration of ~40 μM. Sample was placed into a 1 cm quartz cuvette, and fixed-angle DLS was performed at 25 °C. Measurements of fixed-angle scattering were averaged over time intervals and, therefore, gave the correlation function, which in turn yielded the particle size distribution (assuming exponential correlation), reported as diameter in nm. This processing was done using the NanoBrook instrument analysis software. Particle size analysis assumes spherical geometry.

Molecule: CC[C@H](C)[C@@H]1NC(=O)[C@@H]2CSSC[C@@H]3NC(=O)[C@H](C(C)C)NC(=O)[C@H](CC(C)C)NC(=O)[C@H](CC(N)=O)NC(=O)[C@@H]4CCCN4C(=O)[C@H](CCCNC(=N)N)NC(=O)[C@H](CSSC[C@H](NC(=O)[C@@H](N)CC(=O)O)C(=O)N[C@@H](CC(C)C)C(=O)NCC(=O)N[C@@H](Cc4ccccc4)C(=O)N[C@@H](CCSC)C(=O)N[C@@H](CCCNC(=N)N)C(=O)N[C@@H](CCCCN)C(=O)N2)NC(=O)[C@H](CSSC[C@@H](C(=O)N[C@@H](CCCCN)C(=O)N[C@@H](Cc2ccc(O)cc2)C(=O)N[C@H](C(=O)N[C@@H](Cc2ccccc2)C(=O)O)C(C)C)NC(=O)[C@H](Cc2c[nH]c4ccccc24)NC(=O)[C@H](CCCCN)NC(=O)[C@H](Cc2c[nH]cn2)NC(=O)[C@H]([C@@H](C)O)NC(=O)[C@H](CCCNC(=N)N)NC(=O)[C@H](CO)NC3=O)NC(=O)[C@H](CCCCN)NC(=O)[C@H](CC(=O)O)NC(=O)[C@H](CC(N)=O)NC(=O)[C@H](CC(=O)O)NC(=O)[C@@H]2CCCN2C1=O [GpTx-I]
- IC50 (full-length NaV1.7): 0.01 µM
- analgesic effects in mice (in words) (mice): analgesic effects superior to morphine in mice; also recorded: exhibits analgesic effects in mice
- change in binding affinity for mutants (in words) [1]: decreases in GpTx-I binding affinity; also recorded: substantial reduction in binding affinity

B1: VSD2/DMPC complex: recombinant refolded NaV1.7 VSD of repeat II, residues 732–860 (UniProt ID Q15858-3), reconstituted into DMPC vesicles (protein)
chain: DPFVDLAITICIVLNTLFMAMEHHPMTEEFKNVLAIGNLVFTGIFAAEMVLKLIAMDPYEYFQVGWNIFDSLIVTLSLVELFLADVEGLSVLRSFRLLRVFKLAKSWPTLNMLIKIIGNSVGALGNLTL
- mean particle diameter / size distribution maximum [2]: roughly 80 nm
